Source: patent US20260042731A1, “(2,4-DICHLOROPHENOXY)ACETIC ACID ANALOGS” (CORTEVA AGRISCIENCE LLC, priority 2022, published 2026)
Read-outs that look alike come from different tables or passages of the source.

Key:
[1] = system: Abutilon theophrasti (ABUTH), velvetleaf; assay: Postemergence herbicide evaluation, growth of Abutilon theophrasti (ABUTH); type: in vivo; conditions: Abutilon theophrasti, post-emergence, percent reduction in plant size relative to untreated control, read-out: AVE. ABUTH; for pest or weed control at 280 g/ha: 280 g ae/ha; for pest or weed control at 560 g/ha: 560 g ae/ha
[2] = system: Amaranthus rudis (AMATA), tall water hemp; assay: Postemergence herbicide evaluation, growth of Amaranthus rudis (AMATA); type: in vivo; conditions: Amaranthus tuberculatus, post-emergence, percent reduction in plant size relative to untreated control, read-out: Ave. AMATA; for pest or weed control at 280 g/ha: 280 g ae/ha; for pest or weed control at 560 g/ha: 560 g ae/ha
[3] = Volatility of compounds measured by thermogravimetric analysis (TGA); type: physicochemical
[4] = system: Chenopodium album (CHEAL), common lambsquarters; assay: Postemergence herbicide evaluation, growth of Chenopodium album (CHEAL); type: in vivo; conditions: Chenopodium album, post-emergence, percent reduction in plant size relative to untreated control, read-out: Ave. CHEAL; for pest or weed control at 280 g/ha: 280 g ae/ha; for pest or weed control at 560 g/ha: 560 g ae/ha
[5] = system: weeds (ABUTH, AMATA, AMBEL, CHEAL, ERICA); assay: Postemergence herbicide evaluation, overall average % weed control across ABUTH, AMATA, AMBEL, CHEAL, ERICA; type: in vivo; conditions: post-emergence, average over the five weeds, read-out: Overall Ave % Weed Control; for pest or weed control at 280 g/ha: 280 g ae/ha; for pest or weed control at 560 g/ha: 560 g ae/ha
[6] = system: glyphosate resistant Conyza canadensis (L.) (ERICA), horseweed; assay: Postemergence herbicide evaluation, growth of Conyza canadensis (ERICA); type: in vivo; conditions: Erigeron canadensis, post-emergence, percent reduction in plant size relative to untreated control, read-out: Ave. ERICA; for pest or weed control at 280 g/ha: 280 g ae/ha; for pest or weed control at 560 g/ha: 560 g ae/ha
[7] = system: Ambrosia artemisiifolia (AMBEL), common ragweed; assay: Postemergence herbicide evaluation, growth of Ambrosia artemisiifolia (AMBEL); type: in vivo; conditions: Ambrosia artemisiifolia, post-emergence, percent reduction in plant size relative to untreated control, read-out: AVE. AMBEL; for pest or weed control at 280 g/ha: 280 g ae/ha; for pest or weed control at 560 g/ha: 560 g ae/ha

Structure (SMILES) | pest or weed control at 280 g/ha ([1]; 168 h, 7 DAA) | pest or weed control at 560 g/ha ([1]; 168 h, 7 DAA) | pest or weed control at 280 g/ha ([1]; 336 h, 14 DAA) | pest or weed control at 560 g/ha ([1]; 336 h, 14 DAA) | pest or weed control at 280 g/ha ([1]; 504 h, 21 DAA) | pest or weed control at 560 g/ha ([1]; 504 h, 21 DAA) | pest or weed control at 280 g/ha ([2]; 168 h, 7 DAA) | pest or weed control at 560 g/ha ([2]; 168 h, 7 DAA) | pest or weed control at 280 g/ha ([2]; 336 h, 14 DAA) | pest or weed control at 560 g/ha ([2]; 336 h, 14 DAA) | pest or weed control at 280 g/ha ([2]; 504 h, 21 DAA) | pest or weed control at 560 g/ha ([2]; 504 h, 21 DAA) | TGA Data (rate of weight loss, volatility) [3] | pest or weed control at 280 g/ha ([4]; 168 h, 7 DAA) | pest or weed control at 560 g/ha ([4]; 168 h, 7 DAA) | pest or weed control at 280 g/ha ([4]; 336 h, 14 DAA) | pest or weed control at 560 g/ha ([4]; 336 h, 14 DAA) | pest or weed control at 280 g/ha ([4]; 504 h, 21 DAA) | pest or weed control at 560 g/ha ([4]; 504 h, 21 DAA) | pest or weed control at 280 g/ha ([5]; 168 h, 7 DAA) | further results
CS/C(C)=N\OC(=O)COc1ccc(Cl)cc1Cl [Compound A10, Methyl N-2-(2,4-dichlorophenoxy)acetoxyethanimidothioate] | 83% | 88% | 90% | 92% | 98% | 94% | 80% | 78% | 80% | 73% | 78% | 83% | 0.6 µg/min | 65% | 70% | 75% | 83% | 83% | 53% | 72% | pest or weed control at 560 g/ha ([5]; 168 h, 7 DAA): 76%; pest or weed control at 280 g/ha ([5]; 336 h, 14 DAA): 83%; pest or weed control at 560 g/ha ([5]; 336 h, 14 DAA): 84%; pest or weed control at 280 g/ha ([5]; 504 h, 21 DAA): 90%; pest or weed control at 560 g/ha ([5]; 504 h, 21 DAA): 84%; pest or weed control at 280 g/ha ([6]; 168 h, 7 DAA): 63%; pest or weed control at 560 g/ha ([6]; 168 h, 7 DAA): 68%; pest or weed control at 280 g/ha ([6]; 336 h, 14 DAA): 85%; pest or weed control at 560 g/ha ([6]; 336 h, 14 DAA): 83%; pest or weed control at 280 g/ha ([6]; 504 h, 21 DAA): 93%; pest or weed control at 560 g/ha ([6]; 504 h, 21 DAA): 94%; pest or weed control at 280 g/ha ([7]; 168 h, 7 DAA): 70%; pest or weed control at 560 g/ha ([7]; 168 h, 7 DAA): 75%; pest or weed control at 280 g/ha ([7]; 336 h, 14 DAA): 85%; pest or weed control at 560 g/ha ([7]; 336 h, 14 DAA): 92%; pest or weed control at 280 g/ha ([7]; 504 h, 21 DAA): 100%; pest or weed control at 560 g/ha ([7]; 504 h, 21 DAA): 96%
CCOC(=O)C(=NOC(=O)COc1ccc(Cl)cc1Cl)C(=O)OCC [Compound A7, Diethyl 2-((2-(2,4-dichlorophenoxy)acetoxy)imino)malonate] | 75% | 88% | 83% | 89% | 92% | 94% | 73% | 78% | 83% | 88% | 90% | 88% | 4.7 µg/min | 68% | 70% | 75% | 73% | 73% | 78% | 69% | pest or weed control at 560 g/ha ([5]; 168 h, 7 DAA): 76%; pest or weed control at 280 g/ha ([5]; 336 h, 14 DAA): 82%; pest or weed control at 560 g/ha ([5]; 336 h, 14 DAA): 85%; pest or weed control at 280 g/ha ([5]; 504 h, 21 DAA): 88%; pest or weed control at 560 g/ha ([5]; 504 h, 21 DAA): 89%; pest or weed control at 280 g/ha ([6]; 168 h, 7 DAA): 68%; pest or weed control at 560 g/ha ([6]; 168 h, 7 DAA): 73%; pest or weed control at 280 g/ha ([6]; 336 h, 14 DAA): 89%; pest or weed control at 560 g/ha ([6]; 336 h, 14 DAA): 83%; pest or weed control at 280 g/ha ([6]; 504 h, 21 DAA): 93%; pest or weed control at 560 g/ha ([6]; 504 h, 21 DAA): 90%; pest or weed control at 280 g/ha ([7]; 168 h, 7 DAA): 63%; pest or weed control at 560 g/ha ([7]; 168 h, 7 DAA): 70%; pest or weed control at 280 g/ha ([7]; 336 h, 14 DAA): 83%; pest or weed control at 560 g/ha ([7]; 336 h, 14 DAA): 95%; pest or weed control at 280 g/ha ([7]; 504 h, 21 DAA): 92%; pest or weed control at 560 g/ha ([7]; 504 h, 21 DAA): 98%
CN(NC(=O)COc1ccc(Cl)cc1Cl)C(=O)c1ccccc1 [Compound D9, N′-(2-(2,4-Dichlorophenoxy)acetyl)-N-methylbenzohydrazide] | 43% | 43% | 45% | 48% | 45% | 50% | 65% | 68% | 75% | 70% | 83% | 73% | 0.2 µg/min | 65% | 65% | 73% | 78% | 95% | 90% | 60% | pest or weed control at 560 g/ha ([5]; 168 h, 7 DAA): 63%; pest or weed control at 280 g/ha ([5]; 336 h, 14 DAA): 72%; pest or weed control at 560 g/ha ([5]; 336 h, 14 DAA): 75%; pest or weed control at 280 g/ha ([5]; 504 h, 21 DAA): 80%; pest or weed control at 560 g/ha ([5]; 504 h, 21 DAA): 75%; pest or weed control at 280 g/ha ([6]; 168 h, 7 DAA): 65%; pest or weed control at 560 g/ha ([6]; 168 h, 7 DAA): 68%; pest or weed control at 280 g/ha ([6]; 336 h, 14 DAA): 83%; pest or weed control at 560 g/ha ([6]; 336 h, 14 DAA): 88%; pest or weed control at 280 g/ha ([6]; 504 h, 21 DAA): 94%; pest or weed control at 560 g/ha ([6]; 504 h, 21 DAA): 65%; pest or weed control at 280 g/ha ([7]; 168 h, 7 DAA): 60%; pest or weed control at 560 g/ha ([7]; 168 h, 7 DAA): 73%; pest or weed control at 280 g/ha ([7]; 336 h, 14 DAA): 83%; pest or weed control at 560 g/ha ([7]; 336 h, 14 DAA): 94%; pest or weed control at 280 g/ha ([7]; 504 h, 21 DAA): 85%; pest or weed control at 560 g/ha ([7]; 504 h, 21 DAA): 99%
